Data from PubChem BioAssay (NCI).
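Tested at 5 concentrations; 48 h exposure; 96-well plates; endpoints linearly interpolated, else capped at highest concentration. At the GI50, growth is halved. TGI: total growth inhibition.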

Key:
Experiment in all cases: NCI anticancer screen, dose series, 48 h
SNB-75 CNS = tested on: SNB-75 CNS
SW-620 colon = tested on: SW-620 colon
NCI-H460 lung = tested on: NCI-H460 lung
HOP-92 NSCLC = tested on: HOP-92 NSCLC
SNB-19 CNS = tested on: SNB-19 CNS
HCT-116 colon = tested on: HCT-116 colon
HCT-15 colon = tested on: HCT-15 colon
CAKI-1 renal = tested on: CAKI-1 renal
HT29 colon = tested on: HT29 colon
SF-539 CNS = tested on: SF-539 CNS
IGROV1 ovarian = tested on: IGROV1 ovarian
SR leukemia = tested on: SR leukemia
OVCAR-5 ovarian = tested on: OVCAR-5 ovarian
COLO 205 colon = tested on: COLO 205 colon
HCC-2998 colon = tested on: HCC-2998 colon
DU-145 prostate = tested on: DU-145 prostate
ACHN renal = tested on: ACHN renal
K-562 leukemia = tested on: K-562 leukemia
MALME-3M melanoma = tested on: MALME-3M melanoma
NCI-H522 lung = tested on: NCI-H522 lung
NCI-H226 lung = tested on: NCI-H226 lung
SK-OV-3 ovarian = tested on: SK-OV-3 ovarian
MDA-MB-231 breast = tested on: MDA-MB-231 breast
SF-268 CNS = tested on: SF-268 CNS
UO-31 renal = tested on: UO-31 renal
U251 CNS = tested on: U251 CNS
OVCAR-4 ovarian = tested on: OVCAR-4 ovarian
MCF7 breast = tested on: MCF7 breast
TK-10 renal = tested on: TK-10 renal
HL-60(TB) leukemia = tested on: HL-60(TB) leukemia
HOP-62 NSCLC = tested on: HOP-62 NSCLC
SK-MEL-5 melanoma = tested on: SK-MEL-5 melanoma
MOLT-4 leukemia = tested on: MOLT-4 leukemia
NCI-H23 lung = tested on: NCI-H23 lung
786-0 renal = tested on: 786-0 renal
OVCAR-8 ovarian = tested on: OVCAR-8 ovarian
EKVX NSCLC = tested on: EKVX NSCLC
RPMI-8226 leukemia = tested on: RPMI-8226 leukemia
MDA-MB-435 = tested on: MDA-MB-435
A549 NSCLC = tested on: A549 NSCLC
OVCAR-3 ovarian = tested on: OVCAR-3 ovarian
HS 578T breast = tested on: HS 578T breast
RXF 393 renal = tested on: RXF 393 renal
SN12C renal = tested on: SN12C renal
A498 renal = tested on: A498 renal
SK-MEL-28 melanoma = tested on: SK-MEL-28 melanoma
PC-3 prostate = tested on: PC-3 prostate
LOX IMVI melanoma = tested on: LOX IMVI melanoma
BT-549 breast = tested on: BT-549 breast
SK-MEL-2 melanoma = tested on: SK-MEL-2 melanoma
KM12 colon = tested on: KM12 colon
M14 melanoma = tested on: M14 melanoma
SF-295 CNS = tested on: SF-295 CNS
NCI/ADR-RES ovarian = tested on: NCI/ADR-RES ovarian
T-47D breast = tested on: T-47D breast
CCRF-CEM leukemia = tested on: CCRF-CEM leukemia
UACC-62 melanoma = tested on: UACC-62 melanoma

`Cc1cnc(NC2CCOCC2)nc1-n1cnc(C(=O)N[C@H](CN)c2cc(F)cc(Cl)c2)c1` was tested. Which GI50 (SNB-75 CNS) did it give?
Its GI50 is 0.103 µM.

And the TGI (SNB-75 CNS)?
Its TGI is 8.84 µM.

What about the GI50 (SW-620 colon) of the same molecule?
Its GI50 is 0.0383 µM.

And the TGI (SW-620 colon)?
The TGI was 14.3 µM.

And the GI50 (NCI-H460 lung)?
The GI50 was 1.05 µM.

What about the TGI (NCI-H460 lung) of the same molecule?
Its TGI is 17.9 µM.

What about the GI50 (HOP-92 NSCLC) of the same molecule?
Its GI50 is 0.023 µM.

What about the TGI (HOP-92 NSCLC) of the same molecule?
The TGI was 2.12 µM.

And the GI50 (SNB-19 CNS)?
Its GI50 is 13.9 µM.

What about the TGI (SNB-19 CNS) of the same molecule?
The TGI was greater than 57.8 µM.

What about the GI50 (HCT-116 colon) of the same molecule?
Its GI50 is 0.0177 µM.

And the TGI (HCT-116 colon)?
The TGI was 12.4 µM.

What about the GI50 (HCT-15 colon) of the same molecule?
The GI50 was 3.06 µM.

And the TGI (HCT-15 colon)?
The TGI was 34.3 µM.

What about the GI50 (CAKI-1 renal) of the same molecule?
Its GI50 is 0.237 µM.

And the TGI (CAKI-1 renal)?
The TGI was 5.34 µM.

What about the GI50 (HT29 colon) of the same molecule?
The GI50 was 0.0128 µM.

What about the TGI (HT29 colon) of the same molecule?
The TGI was greater than 35.4 µM.

What about the GI50 (SF-539 CNS) of the same molecule?
The GI50 was 2.93 µM.

And the TGI (SF-539 CNS)?
Its TGI is 17.4 µM.

And the GI50 (IGROV1 ovarian)?
The GI50 was 0.0702 µM.

What about the TGI (IGROV1 ovarian) of the same molecule?
The TGI was 13 µM.

What about the GI50 (SR leukemia) of the same molecule?
The GI50 was 1.14 µM.

And the TGI (SR leukemia)?
The TGI was 16.5 µM.

What about the GI50 (OVCAR-5 ovarian) of the same molecule?
Its GI50 is 0.0269 µM.

And the TGI (OVCAR-5 ovarian)?
Its TGI is greater than 82.8 µM.

And the GI50 (COLO 205 colon)?
The GI50 was less than 0.01 µM.

What about the TGI (COLO 205 colon) of the same molecule?
Its TGI is 14.2 µM.

What about the GI50 (HCC-2998 colon) of the same molecule?
Its GI50 is 0.018 µM.

What about the TGI (HCC-2998 colon) of the same molecule?
The TGI was 11.6 µM.

What about the GI50 (DU-145 prostate) of the same molecule?
Its GI50 is 2.34 µM.

What about the TGI (DU-145 prostate) of the same molecule?
Its TGI is 82.8 µM.

And the GI50 (ACHN renal)?
The GI50 was 1.64 µM.

What about the TGI (ACHN renal) of the same molecule?
Its TGI is 28 µM.

What about the GI50 (K-562 leukemia) of the same molecule?
Its GI50 is 0.783 µM.

What about the TGI (K-562 leukemia) of the same molecule?
The TGI was 14.5 µM.

What about the GI50 (MALME-3M melanoma) of the same molecule?
Its GI50 is less than 0.01 µM.

What about the TGI (MALME-3M melanoma) of the same molecule?
Its TGI is 0.0157 µM.

What about the GI50 (NCI-H522 lung) of the same molecule?
Its GI50 is 8.23 µM.

What about the TGI (NCI-H522 lung) of the same molecule?
Its TGI is 30.5 µM.

What about the GI50 (NCI-H226 lung) of the same molecule?
The GI50 was 1.36 µM.

And the TGI (NCI-H226 lung)?
Its TGI is 10.9 µM.

What about the GI50 (SK-OV-3 ovarian) of the same molecule?
Its GI50 is 0.523 µM.

What about the TGI (SK-OV-3 ovarian) of the same molecule?
The TGI was 8.17 µM.

And the GI50 (MDA-MB-231 breast)?
The GI50 was 0.0999 µM.

And the TGI (MDA-MB-231 breast)?
Its TGI is greater than 30.6 µM.

And the GI50 (SF-268 CNS)?
The GI50 was 1.86 µM.

And the TGI (SF-268 CNS)?
The TGI was 23.2 µM.

What about the GI50 (UO-31 renal) of the same molecule?
The GI50 was 0.903 µM.

What about the TGI (UO-31 renal) of the same molecule?
Its TGI is 5.43 µM.

And the GI50 (U251 CNS)?
Its GI50 is 1.54 µM.

And the TGI (U251 CNS)?
The TGI was 22.9 µM.

What about the GI50 (OVCAR-4 ovarian) of the same molecule?
The GI50 was 0.506 µM.

And the TGI (OVCAR-4 ovarian)?
The TGI was 53.5 µM.

And the GI50 (MCF7 breast)?
Its GI50 is 1.58 µM.

What about the TGI (MCF7 breast) of the same molecule?
The TGI was 15.4 µM.

And the GI50 (TK-10 renal)?
The GI50 was 0.113 µM.

And the TGI (TK-10 renal)?
Its TGI is 23 µM.

And the GI50 (HL-60(TB) leukemia)?
Its GI50 is 0.0196 µM.

What about the TGI (HL-60(TB) leukemia) of the same molecule?
The TGI was 1.83 µM.

What about the GI50 (HOP-62 NSCLC) of the same molecule?
The GI50 was 0.154 µM.

What about the TGI (HOP-62 NSCLC) of the same molecule?
The TGI was 20.9 µM.

What about the GI50 (SK-MEL-5 melanoma) of the same molecule?
Its GI50 is 0.388 µM.

What about the TGI (SK-MEL-5 melanoma) of the same molecule?
Its TGI is 12.9 µM.

What about the GI50 (MOLT-4 leukemia) of the same molecule?
Its GI50 is 1.59 µM.

And the TGI (MOLT-4 leukemia)?
The TGI was 9.79 µM.

What about the GI50 (NCI-H23 lung) of the same molecule?
Its GI50 is 0.0201 µM.

And the TGI (NCI-H23 lung)?
The TGI was 16.5 µM.

What about the GI50 (786-0 renal) of the same molecule?
The GI50 was 1.49 µM.

What about the TGI (786-0 renal) of the same molecule?
The TGI was 20 µM.

What about the GI50 (OVCAR-8 ovarian) of the same molecule?
The GI50 was 3.48 µM.

And the TGI (OVCAR-8 ovarian)?
The TGI was 42.6 µM.

And the GI50 (EKVX NSCLC)?
Its GI50 is 0.427 µM.

What about the TGI (EKVX NSCLC) of the same molecule?
The TGI was 20.2 µM.

And the GI50 (RPMI-8226 leukemia)?
The GI50 was 7.45 µM.

What about the TGI (RPMI-8226 leukemia) of the same molecule?
Its TGI is 30.4 µM.

And the GI50 (MDA-MB-435)?
The GI50 was 0.0638 µM.

And the TGI (MDA-MB-435)?
Its TGI is 16.4 µM.

What about the GI50 (A549 NSCLC) of the same molecule?
Its GI50 is 0.216 µM.

What about the TGI (A549 NSCLC) of the same molecule?
Its TGI is 30.5 µM.

What about the GI50 (OVCAR-3 ovarian) of the same molecule?
Its GI50 is 1.94 µM.

And the TGI (OVCAR-3 ovarian)?
The TGI was 22.2 µM.

And the GI50 (HS 578T breast)?
Its GI50 is 0.871 µM.

What about the TGI (HS 578T breast) of the same molecule?
The TGI was 15.8 µM.

What about the GI50 (RXF 393 renal) of the same molecule?
The GI50 was 0.101 µM.

And the TGI (RXF 393 renal)?
The TGI was 2.42 µM.

What about the GI50 (SN12C renal) of the same molecule?
The GI50 was 2.27 µM.

And the TGI (SN12C renal)?
Its TGI is greater than 52.1 µM.

And the GI50 (A498 renal)?
Its GI50 is 0.0508 µM.

And the TGI (A498 renal)?
The TGI was 0.462 µM.

What about the GI50 (SK-MEL-28 melanoma) of the same molecule?
The GI50 was 0.0203 µM.

What about the TGI (SK-MEL-28 melanoma) of the same molecule?
The TGI was 13.5 µM.

And the GI50 (PC-3 prostate)?
The GI50 was 4.36 µM.

What about the TGI (PC-3 prostate) of the same molecule?
Its TGI is 38.5 µM.

What about the GI50 (LOX IMVI melanoma) of the same molecule?
Its GI50 is 0.0441 µM.

And the TGI (LOX IMVI melanoma)?
Its TGI is 5.88 µM.

What about the GI50 (BT-549 breast) of the same molecule?
The GI50 was 5.02 µM.

And the TGI (BT-549 breast)?
The TGI was 17.2 µM.

And the GI50 (SK-MEL-2 melanoma)?
Its GI50 is 0.0186 µM.

What about the TGI (SK-MEL-2 melanoma) of the same molecule?
Its TGI is 0.531 µM.

And the GI50 (KM12 colon)?
Its GI50 is 0.0814 µM.

And the TGI (KM12 colon)?
The TGI was 30.1 µM.

What about the GI50 (M14 melanoma) of the same molecule?
The GI50 was 0.0193 µM.

And the TGI (M14 melanoma)?
Its TGI is 2.38 µM.

And the GI50 (SF-295 CNS)?
Its GI50 is 2.8 µM.

What about the TGI (SF-295 CNS) of the same molecule?
Its TGI is 17.3 µM.

What about the GI50 (NCI/ADR-RES ovarian) of the same molecule?
Its GI50 is 19.8 µM.

And the TGI (NCI/ADR-RES ovarian)?
Its TGI is greater than 91.9 µM.

What about the GI50 (T-47D breast) of the same molecule?
The GI50 was 13.6 µM.

What about the TGI (T-47D breast) of the same molecule?
The TGI was 46.6 µM.

What about the GI50 (CCRF-CEM leukemia) of the same molecule?
The GI50 was 2.4 µM.

And the TGI (CCRF-CEM leukemia)?
Its TGI is 24.5 µM.

What about the GI50 (UACC-62 melanoma) of the same molecule?
The GI50 was 0.0102 µM.

What about the TGI (UACC-62 melanoma) of the same molecule?
The TGI was 5.57 µM.
